Data: US12404241B2 (Celgene Corporation, priority 2018, dated 2025)
Like-named read-outs stand apart in the source and are kept apart here.

Target: T1, AR (Homo sapiens, UniProt P10275)
T1 construct: endogenous in cells; host or cells: VCaP cells
T1 sequence (P10275 1-920): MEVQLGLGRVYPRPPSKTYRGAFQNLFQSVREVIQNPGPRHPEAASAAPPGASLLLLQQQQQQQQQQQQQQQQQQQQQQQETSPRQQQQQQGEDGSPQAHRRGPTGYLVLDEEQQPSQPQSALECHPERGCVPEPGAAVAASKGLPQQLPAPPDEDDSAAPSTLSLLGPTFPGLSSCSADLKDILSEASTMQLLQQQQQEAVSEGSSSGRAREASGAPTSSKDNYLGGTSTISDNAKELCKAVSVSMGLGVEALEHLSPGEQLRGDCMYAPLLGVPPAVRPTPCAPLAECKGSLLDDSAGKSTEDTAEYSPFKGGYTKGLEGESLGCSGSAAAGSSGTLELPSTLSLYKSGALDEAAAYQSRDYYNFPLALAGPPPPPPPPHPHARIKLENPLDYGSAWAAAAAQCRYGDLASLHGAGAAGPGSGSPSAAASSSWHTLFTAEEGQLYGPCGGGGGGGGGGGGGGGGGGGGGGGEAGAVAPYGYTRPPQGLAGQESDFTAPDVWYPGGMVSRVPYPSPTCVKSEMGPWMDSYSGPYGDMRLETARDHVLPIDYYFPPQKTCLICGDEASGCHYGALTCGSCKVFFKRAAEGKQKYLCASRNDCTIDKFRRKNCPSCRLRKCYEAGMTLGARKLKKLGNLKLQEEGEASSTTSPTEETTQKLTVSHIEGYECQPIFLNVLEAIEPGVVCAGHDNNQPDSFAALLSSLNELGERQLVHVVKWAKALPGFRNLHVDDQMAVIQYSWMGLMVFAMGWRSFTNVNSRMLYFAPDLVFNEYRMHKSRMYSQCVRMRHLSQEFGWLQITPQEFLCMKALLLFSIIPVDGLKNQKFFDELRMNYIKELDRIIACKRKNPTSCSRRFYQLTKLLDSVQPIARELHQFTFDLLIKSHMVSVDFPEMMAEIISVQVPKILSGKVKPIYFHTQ
Assay: VCAP AR Degradation Assay
Format: cell-based
Conditions: for Y (AR degradation efficiency, % of DMSO control): class symbols *; for DC50: class symbols A-C
Method in brief: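 AR protein in lysates quantified by sandwich ELISA after 24 h exposure of VCaP cells at 37 °C to 10 concentrations (1:3 steps, 5 μM top, final). Four-parameter logistic fit of percent-of-DMSO levels gave DC50 (50% degradation), EC50 and minimal AR level Y.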

In the case of `CC(C)c1cc(N2C(=S)N(c3ccc(C#N)c(C(F)(F)F)c3)C(=O)C2(C)C)ccc1OCCN1C[C@@H](C)N(CC(=O)Nc2cc(Cl)cc(NC3CCC(=O)NC3=O)c2)C[C@H]1C` (stereo partly drawn) [Example 175, N-(3-chloro-5-(2,6-dioxopiperidin-3-ylamino)phenyl)-2-((2R,5R)-4-(2-(4-(3-(4-cyano-3-(trifluoromethyl)phenyl)-5,5-dimethyl-4-oxo-2-thioxoimidazolidin-1-yl)-2-isopropylphenoxy)ethyl)-2,5-dimethylpiperazin-1-yl)acetamide], the “Y (AR degradation efficiency, % of DMSO control)” value is reported as “* (0<Y<=25%)” and the DC50 (read-out: DC50) is reported as 100 to 500 nM.
With `CC(C)c1cc(N2C(=S)N(c3cnc(C#N)c(C(F)(F)F)c3)C(=O)C23CCC3)ccc1OCCN1C[C@@H](C)N(CC(=O)Nc2cccc(NC3CCC(=O)NC3=O)c2)[C@@H](C)C1` (stereo partly drawn) [Example 176, 2-((2S,6R)-4-(2-(4-(7-(6-cyano-5-(trifluoromethyl)pyridin-3-yl)-8-oxo-6-thioxo-5,7-diazaspiro[3.4]octan-5-yl)-2-isopropylphenoxy)ethyl)-2,6-dimethylpiperazin-1-yl)-N-(3-(2,6-dioxopiperidin-3-ylamino)phenyl)acetamide] the “Y (AR degradation efficiency, % of DMSO control)” value was “* (0<Y<=25%)” and the DC50 (read-out: DC50) was < 100 nM.
With `CCc1cc(N2C(=S)N(c3ccc(C#N)c(C(F)(F)F)c3)C(=O)C2(C)C)ccc1OCCN1CC2CCC(C1)N2CC(=O)Nc1cccc(NC2CCC(=O)NC2=O)c1` (stereo not shown) [Example 177, 2-(3-(2-(4-(3-(4-cyano-3-(trifluoromethyl)phenyl)-5,5-dimethyl-4-oxo-2-thioxoimidazolidin-1-yl)-2-ethylphenoxy)ethyl)-3,8-diazabicyclo[3.2.1]octan-8-yl)-N-(3-(2,6-dioxopiperidin-3-ylamino)phenyl)acetamide] the “Y (AR degradation efficiency, % of DMSO control)” value was “* (0<Y<=25%)” and the DC50 (read-out: DC50) was 100 to 500 nM.
With `CCc1cc(N2C(=S)N(c3cnc(C#N)c(C(F)(F)F)c3)C(=O)C2(C)C)ccc1OCCN1CC2CCC(C1)N2CC(=O)Nc1cccc(NC2CCC(=O)NC2=O)c1` (stereo not shown) [Example 178, 2-(3-(2-(4-(3-(6-cyano-5-(trifluoromethyl)pyridin-3-yl)-5,5-dimethyl-4-oxo-2-thioxoimidazolidin-1-yl)-2-ethylphenoxy)ethyl)-3,8-diazabicyclo[3.2.1]octan-8-yl)-N-(3-(2,6-dioxopiperidin-3-ylamino)phenyl)acetamide] the “Y (AR degradation efficiency, % of DMSO control)” value was “** (25%<Y<=35%)” and the DC50 was < 100 nM.
`CCc1cc(N2C(=S)N(c3cnc(C#N)c(C(F)(F)F)c3)C(=O)C2(C)C)ccc1OCCN1C[C@@H]2CC[C@H]1CN2CC(=O)Nc1cc(Cl)cc(NC2CCC(=O)NC2=O)c1` (stereo partly drawn) [Example 179, N-(3-chloro-5-(2,6-dioxopiperidin-3-ylamino)phenyl)-2-((1S,4S)-5-(2-(4-(3-(6-cyano-5-(trifluoromethyl)pyridin-3-yl)-5,5-dimethyl-4-oxo-2-thioxoimidazolidin-1-yl)-2-ethylphenoxy)ethyl)-2,5-diazabicyclo[2.2.2]octan-2-yl)acetamide] was tested, and the “Y (AR degradation efficiency, % of DMSO control)” value was “** (25%<Y<=35%)” and the DC50 (read-out: DC50) was 100 to 500 nM.
With `CC(C)c1cc(N2C(=S)N(c3cnc(C#N)c(C(F)(F)F)c3)C(=O)C2(C)C)ccc1OCCN1C[C@@H](C)N(CC(=O)Nc2cccc(NC3CCC(=O)NC3=O)c2)[C@@H](C)C1` (stereo partly drawn) [Example 180, 2-((2S,6R)-4-(2-(4-(3-(6-cyano-5-(trifluoromethyl)pyridin-3-yl)-5,5-dimethyl-4-oxo-2-thioxoimidazolidin-1-yl)-2-isopropylphenoxy)ethyl)-2,6-dimethylpiperazin-1-yl)-N-(3-(2,6-dioxopiperidin-3-ylamino)phenyl)acetamide] the “Y (AR degradation efficiency, % of DMSO control)” value was “* (0<Y<=25%)” and the DC50 (read-out: DC50) was < 100 nM.
In the case of `CCc1cc(N2C(=S)N(c3ccc(C#N)c(C(F)(F)F)c3)C(=O)C2(C)C)ccc1OCCN1C[C@@H](C)N(CC(=O)Nc2cc(C#N)cc(NC3CCC(=O)NC3=O)c2)C[C@H]1C` (stereo partly drawn) [Example 181, 2-((2R,5R)-4-(2-(4-(3-(4-cyano-3-(trifluoromethyl)phenyl)-5,5-dimethyl-4-oxo-2-thioxoimidazolidin-1-yl)-2-ethylphenoxy)ethyl)-2,5-dimethylpiperazin-1-yl)-N-(3-cyano-5-(2,6-dioxopiperidin-3-ylamino)phenyl)acetamide], the “Y (AR degradation efficiency, % of DMSO control)” value is reported as “* (0<Y<=25%)” and the DC50 (read-out: DC50) is reported as < 100 nM.
In the case of `CCc1cc(N2C(=S)N(c3cnc(C#N)c(C(F)(F)F)c3)C(=O)C23CCC3)ccc1OCCN1C[C@H]2CC[C@@H]1CN2CC(=O)Nc1cccc(NC2CCC(=O)NC2=O)c1` (stereo partly drawn) [Example 182, 2-((1R,4R)-5-(2-(4-(7-(6-cyano-5-(trifluoromethyl)pyridin-3-yl)-8-oxo-6-thioxo-5,7-diazaspiro[3.4]octan-5-yl)-2-ethylphenoxy)ethyl)-2,5-diazabicyclo[2.2.2]octan-2-yl)-N-(3-(2,6-dioxopiperidin-3-ylamino)phenyl)acetamide], the “Y (AR degradation efficiency, % of DMSO control)” value is reported as “** (25%<Y<=35%)” and the DC50 (read-out: DC50) is reported as 100 to 500 nM.
In the case of `CCc1cc(N2C(=S)N(c3cnc(C#N)c(C(F)(F)F)c3)C(=O)C2(C)C)ccc1OCCN1C[C@H]2CC[C@@H]1CN2CC(=O)Nc1cccc(NC2CCC(=O)NC2=O)c1` (stereo partly drawn) [Example 183, 2-((1R,4R)-5-(2-(4-(3-(6-cyano-5-(trifluoromethyl)pyridin-3-yl)-5,5-dimethyl-4-oxo-2-thioxoimidazolidin-1-yl)-2-ethylphenoxy)ethyl)-2,5-diazabicyclo[2.2.2]octan-2-yl)-N-(3-(2,6-dioxopiperidin-3-ylamino)phenyl)acetamide], the “Y (AR degradation efficiency, % of DMSO control)” value is reported as “** (25%<Y<=35%)” and the DC50 (read-out: DC50) is reported as 100 to 500 nM.
`CCc1cc(N2C(=S)N(c3cnc(C#N)c(C(F)(F)F)c3)C(=O)C2(C)C)ccc1OCCN1C[C@H]2CC[C@@H]1CN2CC(=O)Nc1cc(Cl)cc(NC2CCC(=O)NC2=O)c1` (stereo partly drawn) [Example 184, N-(3-chloro-5-(2,6-dioxopiperidin-3-ylamino)phenyl)-2-((1R,4R)-5-(2-(4-(3-(6-cyano-5-(trifluoromethyl)pyridin-3-yl)-5,5-dimethyl-4-oxo-2-thioxoimidazolidin-1-yl)-2-ethylphenoxy)ethyl)-2,5-diazabicyclo[2.2.2]octan-2-yl)acetamide] was tested, and the “Y (AR degradation efficiency, % of DMSO control)” value was “** (25%<Y<=35%)” and the DC50 (read-out: DC50) was 100 to 500 nM.
For `CC(C)c1cc(N2C(=S)N(c3cnc(C#N)c(C(F)(F)F)c3)C(=O)C2(C)C)ccc1OCCN1C[C@@H](C)N(CC(=O)Nc2cc(Cl)cc(NC3CCC(=O)NC3=O)c2)C[C@H]1C` (stereo partly drawn) [Example 185, N-(3-chloro-5-(2,6-dioxopiperidin-3-ylamino)phenyl)-2-((2R,5R)-4-(2-(4-(3-(6-cyano-5-(trifluoromethyl)pyridin-3-yl)-5,5-dimethyl-4-oxo-2-thioxoimidazolidin-1-yl)-2-isopropylphenoxy)ethyl)-2,5-dimethylpiperazin-1-yl)acetamide], the “Y (AR degradation efficiency, % of DMSO control)” value was “* (0<Y<=25%)” and the DC50 (read-out: DC50) was 100 to 500 nM.
`CCc1cc(N2C(=S)N(c3ccc(C#N)c(C(F)(F)F)c3)C(=O)C2(C)C)ccc1OCCN1C[C@@H](C)N(CC(=O)Nc2cc(C#N)cc(NC3CCC(=O)NC3=O)c2)[C@@H](C)C1` (stereo partly drawn) [Example 186, 2-((2S,6R)-4-(2-(4-(3-(4-cyano-3-(trifluoromethyl)phenyl)-5,5-dimethyl-4-oxo-2-thioxoimidazolidin-1-yl)-2-ethylphenoxy)ethyl)-2,6-dimethylpiperazin-1-yl)-N-(3-cyano-5-(2,6-dioxopiperidin-3-ylamino)phenyl)acetamide] was tested, and the “Y (AR degradation efficiency, % of DMSO control)” value was “* (0<Y<=25%)” and the DC50 (read-out: DC50) was < 100 nM.
In the case of `CCc1cc(N2C(=S)N(c3ccc(C#N)c(C(F)(F)F)c3)C(=O)C2(C)C)cnc1OCCN1CCN(CC(=O)Nc2cccc(NC3CCC(=O)NC3=O)c2)[C@H](C)C1` (stereo partly drawn) [Example 187, 2-((R)-4-(2-(5-(3-(4-cyano-3-(trifluoromethyl)phenyl)-5,5-dimethyl-4-oxo-2-thioxoimidazolidin-1-yl)-3-ethylpyridin-2-yloxy)ethyl)-2-methylpiperazin-1-yl)-N-(3-(2,6-dioxopiperidin-3-ylamino)phenyl)acetamide], the “Y (AR degradation efficiency, % of DMSO control)” value is reported as “* (0<Y<=25%)” and the DC50 (read-out: DC50) is reported as < 100 nM.
`CCc1cc(N2C(=S)N(c3cnc(C#N)c(C(F)(F)F)c3)C(=O)C23CCC3)ccc1OCCN1CCN(C2(C(=O)Nc3cccc(NC4CCC(=O)NC4=O)c3)CC2)CC1` (stereo not shown) [Example 188, 1-(4-(2-(4-(7-(6-cyano-5-(trifluoromethyl)pyridin-3-yl)-8-oxo-6-thioxo-5,7-diazaspiro[3.4]octan-5-yl)-2-ethylphenoxy)ethyl)piperazin-1-yl)-N-(3-(2,6-dioxopiperidin-3-ylamino)phenyl)cyclopropanecarboxamide] was tested, and the “Y (AR degradation efficiency, % of DMSO control)” value was “* (0<Y<=25%)” and the DC50 (read-out: DC50) was < 100 nM.
